Laboratory results taken from patent US20250376466A1, “ESTER COMPOUNDS AND USE THEREOF” (NANJING REJU THERAPEUTICS, CO., LTD., priority 2022, published 2025).

What was measured:
[1] = tested on: normal and senescent A549 cells; assay: Senescent cell clearance index (senolytic index); type: cell-based, human; conditions: higher index = greater specificity
Description: In this example, human non-small cell lung cancer cell line (A549 cells), human embryonic lung fibroblast cell line (IMR90 cells), human retinal pigment epithelial cells (RPE cells), mouse chondrocytes, and mouse skin fibroblasts were selected. The cells above were induced to obtain senescent cells by etoposide (10 μM). The effect of the target compounds RZ001-RZ006 and RZ201 on the viability of normal and senescent cells above was detected, thereby evaluating the specific killing effect of the prodrugs RZ001-RZ006 and RZ201 on senescent cells above.
Briefly, senescent and normal cells above were selected and plated separately (96-well plates). After adding the compounds RZ001-RZ006 and RZ201 (concentration: 1 μM) for 72 hours, CellTiter-Glo® Luminescent Cell Viability Assay Kit (Promega) was used to detect cell viability, and the results were shown in FIGS. 2A to 2E.
Furthermore, the senescent cell clearance index (senolytic index) was also calculated for both normal and senescent A549 cells, as shown in Table 4. A higher index indicates greater specificity in eliminating senescent cells and better safety.

diabetic retinopathy = assay: Mouse model of diabetic retinopathy (STZ), Evans blue penetration; type: in vivo; conditions: intravitreal (IVT), 1 μL of 200 μM at 8 and 9 weeks after STZ; Evans blue at 10 weeks; FIG. 4
Description: The efficacy of the compounds of the present disclosure was studied in a mouse model of diabetic retinopathy by multiple administrations of streptozotocin (STZ). C57BL/6J mice at 6 to 7 weeks were weighed and their baseline blood glucose was measured (Sino). STZ (Sigma-Aldrich) was injected intraperitoneally into the mice at 55 mg/Kg for five consecutive days. Age-matched controls were injected with buffer only. Blood glucose was measured again one week after the last STZ injection. 1 μL of the test compound (200 μM, a suspension formulated in 0.015% polysorbate 80, 0.2% sodium phosphate, 0.75% sodium chloride, pH 7.2) was injected intravitreally into the STZ-treated diabetic C57BL/6J mice at 8 and 9 weeks after STZ administration. 10 weeks after STZ treatment, the retinal Evans blue penetration assay was performed.

[2] = tested on: wet-age-related macular degeneration (CNV); assay: CNV animal model of wet age-related macular degeneration; type: in vivo, mice; conditions: intravitreal (IVT); laser CNV model; FIG. 5
Description: In this example, the efficacy of the compounds of the present disclosure was tested on wet-age-related macular degeneration in a CNV animal model.
Male mice were administered 0.5% probacaine hydrochloride (Alcon) for local anesthesia, and 1% tropicamide to dilate the pupils of the mice. Laser cauterization was performed using a laser photocoagulator (Novus Varia, LUMENIS) with a slit lamp delivery system. And artificially torn adherent glass coverslips were used as contact lenses. Bleeding spots caused by laser were not included in the statistical data.

[3] = tested on: idiopathic pulmonary fibrosis; assay: Bleomycin idiopathic pulmonary fibrosis animal model; type: in vivo, SD rats; conditions: intraperitoneal (IP) 5 mg/kg, 3 consecutive weeks from day 7; Day 28; FIG. 6
Description: In this example, the efficacy of the compounds of the present disclosure was tested on idiopathic pulmonary fibrosis in an idiopathic pulmonary fibrosis animal model. Briefly, anesthetized 6-week-old SD rats were fixed on a foam board with medical tape. Firstly, the skin on the surface of the trachea was cut with surgical scissors to fully expose the trachea, and a 100-microlitre micro-syringe containing a certain volume of bleomycin (BLM 5 mg/kg) solution drawn based on the body weight of the rat was inserted into the trachea through the oral cavity to administer by slow bolus injection. After administration of the BLM solution, the foam plate was immediately rotated and shaken to distribute the BLM solution as evenly as possible in the lung tissue. Then the skin on the surface of the trachea was sutured with surgical sutures and about 0.5 to 1.0 mL of penicillin solution was dripped onto the epidermis to prevent infection of the surgical wound. After the 7th day of modelling, the compound solution of the present disclosure was administered via intraperitoneal (IP) injection (5 mg/kg) according to the weight of the rat for 3 consecutive weeks. Rats were euthanized by carbon dioxide at Day 28, the lung tissues were removed, the left alveolar lavage fluid was collected for white blood cell (WBC) counting, the right lung tissue portion was used for hydroxyproline (HYP) assay, and the remaining lung tissues were stained for pathology by H&E staining and Masson staining.

osteoarthritis = assay: Osteoarthritis animal model; type: in vivo, mice; conditions: intra-articular injection; FIG. 7
Description: In this example, the efficacy of the compounds of the present disclosure was tested on osteoarthritis in an osteoarthritis animal model.
The osteoarthritis animal model was constructed by the following steps. The mice were anesthetized with isoflurane, and fixed. The hair on the right hind limb of the mice was shaved and the skin was disinfected with alcohol, and the skin of the joints was cut. Under an optical microscope, the inside of the right knee joint was incised longitudinally with a blade, without cutting the patellar ligament. The patellar ligament was pulled to one side with constant hemostasis by compression with sterile cotton swabs such that the joint cavity was fully exposed. Saline was added dropwise in time to avoid the drying up of the joint cavity. The excess muscle tissue was gently separated with a blunt forceps to expose the meniscus ligament. The anterior cruciate ligament was found in the depth of the joint cavity and cut with micro scissor. Then the wound was disinfected with penicillin solution, the muscle was sutured with sterile needle and thread, and the skin tissue was finally sutured. The efficacy of the drug was determined by intra-articular injection administration. At the endpoint of the test, continued pain threshold of the plantar was detected, and the bone joints were stained with safranin fast green.

Alzheimer's disease = assay: APP×PS1 transgenic mouse model of Alzheimer's disease; type: in vivo; conditions: intraperitoneal injection, twice a week, 11 consecutive weeks; cerebral cortex; FIG. 8
Description: In this example, the efficacy of the compounds of the present disclosure was tested on Alzheimer's disease in an animal model of Alzheimer's disease. Briefly, a transgenic mouse model of APP×PS1 (purchased from Cyagen Biosciences) was selected and the compound of the present disclosure was administered by intraperitoneal injection for 11 consecutive weeks, twice a week. Alterations in amyloid in the cerebral cortex of the mice were observed.

hepatic fibrosis = assay: CCl4 mouse model of hepatic fibrosis; type: in vivo, mice; conditions: intraperitoneal (IP) injection twice a week from third week of modelling; FIG. 9
Description: In this example, the efficacy of the compounds of the present disclosure was tested on hepatic fibrosis in an animal model of hepatic fibrosis. Briefly, C57BL/6N mice, male, 7 to 8 weeks old, 24 to 28 g of body weight, were used. The mouse model of hepatic fibrosis was induced by intraperitoneal injection of CCl4 solution at a dosage of 1 mL/kg, with a dosing frequency of 2 times/week, and a modelling cycle of 6 weeks. Dosing via intraperitoneal injection was started from the third week of modelling twice a week. At the end of the test, serum was collected, and liver tissue was taken for Masson staining index assay.

SMILES	senescent cell clearance index (Senolytic Index) [1]	vascular permeability in both the retinal and choroidal vascular leakage (diabetic retinopathy)	fluorescence intensity indicators [2]	HYP (hydroxyproline, lung tissue) [3]	WBC (white blood cell count, alveolar lavage fluid) [3]	pathology scores (H&E and Masson staining, lung) [3]	pathology scores of safranin fast green staining (osteoarthritis)	plantar mechanical pain threshold (osteoarthritis)	Aβ42 pathogenic protein indicators (Alzheimer's disease)	pathology scores (liver, Masson staining) (hepatic fibrosis)	serum alanine aminotransferase (ALT) levels (hepatic fibrosis)	serum aspartate aminotransferase (AST) levels (hepatic fibrosis)
Cc1c(-c2ccc(N3CCc4cccc(C(=O)Nc5nc6ccccc6s5)c4C3)nc2C(=O)OCOC(=O)C(C)C)cnn1CC12CC3CC(CC(C3)C1)C2 [RZ001]	A (A represents more than 200)	improved vascular permeability	statistically significant improvements	statistically significant improvements	statistically significant improvements	statistically significant improvements	statistically significant improvements	statistically significant improvements	statistically significant improvements	statistically significant improvements	statistically significant improvements	statistically significant improvements
Cc1oc(=O)oc1COC(=O)c1nc(N2CCc3cccc(C(=O)Nc4nc5ccccc5s4)c3C2)ccc1-c1cnn(CC23CC4CC(CC(C4)C2)C3)c1C [RZ201]	A (A represents more than 200)	improved vascular permeability	statistically significant improvements	statistically significant improvements	statistically significant improvements	statistically significant improvements	statistically significant improvements	statistically significant improvements	statistically significant improvements	statistically significant improvements	statistically significant improvements	statistically significant improvements
